Test results published in ChEMBL document CHEMBL4665648, “Potent and selective inhibitors of receptor-interacting protein kinase 1 that lack an aromatic back pocket group” (Bioorg Med Chem Lett, 2019).

Legend:
[1] = molecular target: Mitogen-activated protein kinase kinase kinase 5 (Homo sapiens) (UniProt Q99683); assay: Inhibition of tracer 236 binding to recombinant human GST-tagged full length ASK1 expressed in baculovirus expression system at 10 uM incubated for 60 mins by Lanthascreen assay relative to control
[2] = molecular target: Interleukin-1 receptor-associated kinase 4 (Homo sapiens) (UniProt Q9NWZ3); assay: Inhibition of recombinant human His-tagged full length IRAK4 expressed in baculovirus expression system using Ser/Thr 07 as substrate at 10 uM incubated for 60 mins by Z'-Lyte assay relative to control
[3] = molecular target: ALK tyrosine kinase receptor (Homo sapiens) (UniProt Q9UM73); assay: Inhibition of recombinant human GST-tagged […] (1058 to 1620 residues) expressed in baculovirus expression system using Tyr 01 as substrate at 10 uM incubated for 60 mins by Z'-Lyte assay relative to control
[4] = molecular target: Activin receptor type-2B (Homo sapiens) (UniProt Q13705); assay: Inhibition of tracer 178 binding to recombinant human GST-tagged ACVR2B (185 to 488 residues) expressed in baculovirus expression system at 10 uM incubated for 60 mins by Lanthascreen assay relative to control
[5] = molecular target: Dual specificity protein kinase CLK3 (Homo sapiens) (UniProt P49761); assay: Inhibition of recombinant human GST-tagged full length CLK3 expressed in baculovirus expression system using Ser/Thr 18 as substrate at 10 uM incubated for 60 mins by Z'-Lyte assay relative to control
[6] = molecular target: Calcium/calmodulin-dependent protein kinase type II subunit beta (Homo sapiens) (UniProt Q13554); assay: Inhibition of recombinant human His-tagged full length CAMK2beta expressed in baculovirus expression system using Ser/Thr 04 as substrate at 10 uM incubated for 60 mins by Z'-Lyte assay relative to control
[7] = molecular target: Calcium/calmodulin-dependent protein kinase type 1D (Homo sapiens) (UniProt Q8IU85); assay: Inhibition of recombinant human His-tagged full length CAMK1delta expressed in baculovirus expression system using Ser/Thr 25 as substrate at 10 uM incubated for 60 mins by Z'-Lyte assay relative to control
[8] = molecular target: Epidermal growth factor receptor (Homo sapiens) (UniProt P00533); assay: Inhibition of recombinant human GST-tagged EGFR (668 to 1210 residues) expressed in baculovirus expression system using Tyr 4 as substrate at 10 uM incubated for 60 mins by Z'-Lyte assay relative to control
[9] = molecular target: Tyrosine-protein kinase JAK2 (Homo sapiens) (UniProt O60674); assay: Inhibition of recombinant human GST-tagged JAK2 (809 to 1153 residues) expressed in baculovirus expression system using Tyr 06 as substrate at 10 uM incubated for 60 mins by Z'-lyte assay relative to control
[10] = molecular target: Mitogen-activated protein kinase 8 (Homo sapiens) (UniProt P45983); assay: Inhibition of recombinant human His-tagged full length JNK1alpha1 expressed in baculovirus expression system using Ser/Thr 04 as substrate at 10 uM incubated for 60 mins by Z'-lyte assay relative to control
[11] = molecular target: Mitogen-activated protein kinase kinase kinase kinase 5 (Homo sapiens) (UniProt Q9Y4K4); assay: Inhibition of recombinant human GST-tagged full length KHS1 expressed in baculovirus expression system using Ser/Thr 07 as substrate at 10 uM incubated for 60 mins by Z'-lyte assay relative to control
[12] = molecular target: Mitogen-activated protein kinase kinase kinase 10 (Homo sapiens) (UniProt Q02779); assay: Inhibition of tracer 236 binding to recombinant human GST-tagged full length MLK2 expressed in baculovirus expression system at 10 uM incubated for 60 mins by Lanthascreen assay relative to control
[13] = molecular target: Serine/threonine-protein kinase 24 (Homo sapiens) (UniProt Q9Y6E0); assay: Inhibition of recombinant human GST-tagged full length MST3 expressed in baculovirus expression system using Ser/Thr 07 as substrate at 10 uM incubated for 60 mins by Z'-lyte assay relative to control
[14] = molecular target: Muscle, skeletal receptor tyrosine-protein kinase (Homo sapiens) (UniProt O15146); assay: Inhibition of recombinant human GST-tagged MUSK (519 to 869 residues) expressed in baculovirus expression system using Tyr 04 as substrate at 10 uM incubated for 60 mins by Z'-lyte assay relative to control
[15] = molecular target: Protein kinase C alpha type (Homo sapiens) (UniProt P17252); assay: Inhibition of recombinant human His-tagged full length PKCalpha expressed in Escherichia coli expression system using Ser/Thr 07 as substrate at 10 uM incubated for 60 mins by Z'-lyte assay relative to control
[16] = molecular target: Protein kinase C theta type (Homo sapiens) (UniProt Q04759); assay: Inhibition of recombinant human His-tagged full length PKCtheta expressed in baculovirus expression system using Ser/Thr 07 as substrate at 10 uM incubated for 60 mins by Z'-lyte assay relative to control
[17] = molecular target: Phosphorylase b kinase gamma catalytic chain, liver/testis isoform (Homo sapiens) (UniProt P15735); assay: Inhibition of recombinant human N-terminal GST-tagged full length PHKG2 expressed in baculovirus expression system using Ser/Thr 07 as substrate at 10 uM incubated for 60 mins by Z'-lyte assay relative to control
[18] = molecular target: Tyrosine-protein kinase Srms (Homo sapiens) (UniProt Q9H3Y6); assay: Inhibition of recombinant human GST-tagged full length SRM expressed in baculovirus expression system using Tyr 01 as substrate at 10 uM incubated for 60 mins by Z'-Lyte assay relative to control
[19] = molecular target: Serine/threonine-protein kinase TBK1 (Homo sapiens) (UniProt Q9UHD2); assay: Inhibition of recombinant human GST-tagged full length TBK1 expressed in insect expression system using Ser/Thr 05 as substrate at 10 uM incubated for 60 mins by Z'-Lyte assay relative to control
[20] = molecular target: Tyrosine-protein kinase Tec (Homo sapiens) (UniProt P42680); assay: Inhibition of tracer 178 binding to recombinant human His-tagged full length TEC expressed in baculovirus expression system at 10 uM incubated for 60 mins by Lanthascreen assay relative to control
[21] = molecular target: Activated CDC42 kinase 1 (Homo sapiens) (UniProt Q07912); assay: Inhibition of tracer 236 binding to recombinant human GST-tagged TNK2 (110 to 476 residues) expressed in baculovirus expression system at 10 uM incubated for 60 mins by Lanthascreen assay relative to control
[22] = molecular target: Tyrosine-protein kinase TXK (Homo sapiens) (UniProt P42681); assay: Inhibition of recombinant human N-terminal GST-tagged TXK (260 to 527 residues) expressed in baculovirus expression system using Tyr 06 as substrate at 10 uM incubated for 60 mins by Z'-Lyte assay relative to control
[23] = molecular target: Wee1-like protein kinase (Homo sapiens) (UniProt P30291); assay: Inhibition of tracer 178 binding to recombinant human N-terminal GST-tagged full length WEE1 expressed in baculovirus expression system at 10 uM incubated for 60 mins by Lanthascreen assay relative to control
[24] = molecular target: Serine/threonine-protein kinase WNK2 (Homo sapiens) (UniProt Q9Y3S1); assay: Inhibition of tracer 178 binding to recombinant human GST-tagged WNK2 (166 to 489 residues) expressed in baculovirus expression system at 10 uM incubated for 60 mins by Lanthascreen assay relative to control

Chain of Epidermal growth factor receptor (Homo sapiens) (P00533 whole entry, the tested form may be a part): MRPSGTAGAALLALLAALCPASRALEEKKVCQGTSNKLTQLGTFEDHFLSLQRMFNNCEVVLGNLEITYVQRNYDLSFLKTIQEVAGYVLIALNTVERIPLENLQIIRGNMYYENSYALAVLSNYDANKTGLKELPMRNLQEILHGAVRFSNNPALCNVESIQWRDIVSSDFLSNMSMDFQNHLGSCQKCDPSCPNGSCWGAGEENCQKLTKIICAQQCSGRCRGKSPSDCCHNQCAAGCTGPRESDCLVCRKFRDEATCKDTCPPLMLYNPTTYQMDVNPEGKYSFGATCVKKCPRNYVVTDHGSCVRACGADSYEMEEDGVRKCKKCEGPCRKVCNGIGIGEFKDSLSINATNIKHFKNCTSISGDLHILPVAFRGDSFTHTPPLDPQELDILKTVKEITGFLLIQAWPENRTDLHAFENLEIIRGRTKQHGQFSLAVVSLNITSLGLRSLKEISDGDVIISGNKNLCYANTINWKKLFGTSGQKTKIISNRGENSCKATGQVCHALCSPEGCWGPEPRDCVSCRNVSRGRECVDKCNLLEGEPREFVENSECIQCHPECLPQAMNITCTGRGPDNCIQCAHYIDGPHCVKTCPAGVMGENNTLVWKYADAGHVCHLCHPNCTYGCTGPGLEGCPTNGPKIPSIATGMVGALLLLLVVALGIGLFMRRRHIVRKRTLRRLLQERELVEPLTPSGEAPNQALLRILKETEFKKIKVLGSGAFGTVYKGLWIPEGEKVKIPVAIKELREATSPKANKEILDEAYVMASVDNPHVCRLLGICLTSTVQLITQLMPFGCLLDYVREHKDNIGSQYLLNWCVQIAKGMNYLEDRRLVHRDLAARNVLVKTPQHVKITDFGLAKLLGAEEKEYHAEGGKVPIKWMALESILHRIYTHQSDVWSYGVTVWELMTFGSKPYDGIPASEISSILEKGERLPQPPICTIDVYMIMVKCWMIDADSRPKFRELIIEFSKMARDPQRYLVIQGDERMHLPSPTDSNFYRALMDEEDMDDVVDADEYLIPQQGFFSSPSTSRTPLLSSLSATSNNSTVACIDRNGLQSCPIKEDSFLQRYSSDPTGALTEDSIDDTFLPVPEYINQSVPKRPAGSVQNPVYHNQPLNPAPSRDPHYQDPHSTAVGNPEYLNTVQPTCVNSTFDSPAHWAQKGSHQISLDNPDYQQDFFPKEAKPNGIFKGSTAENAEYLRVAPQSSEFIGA
Chain of Protein kinase C theta type (Homo sapiens) (Q04759 whole entry, looked up, canonical isoform): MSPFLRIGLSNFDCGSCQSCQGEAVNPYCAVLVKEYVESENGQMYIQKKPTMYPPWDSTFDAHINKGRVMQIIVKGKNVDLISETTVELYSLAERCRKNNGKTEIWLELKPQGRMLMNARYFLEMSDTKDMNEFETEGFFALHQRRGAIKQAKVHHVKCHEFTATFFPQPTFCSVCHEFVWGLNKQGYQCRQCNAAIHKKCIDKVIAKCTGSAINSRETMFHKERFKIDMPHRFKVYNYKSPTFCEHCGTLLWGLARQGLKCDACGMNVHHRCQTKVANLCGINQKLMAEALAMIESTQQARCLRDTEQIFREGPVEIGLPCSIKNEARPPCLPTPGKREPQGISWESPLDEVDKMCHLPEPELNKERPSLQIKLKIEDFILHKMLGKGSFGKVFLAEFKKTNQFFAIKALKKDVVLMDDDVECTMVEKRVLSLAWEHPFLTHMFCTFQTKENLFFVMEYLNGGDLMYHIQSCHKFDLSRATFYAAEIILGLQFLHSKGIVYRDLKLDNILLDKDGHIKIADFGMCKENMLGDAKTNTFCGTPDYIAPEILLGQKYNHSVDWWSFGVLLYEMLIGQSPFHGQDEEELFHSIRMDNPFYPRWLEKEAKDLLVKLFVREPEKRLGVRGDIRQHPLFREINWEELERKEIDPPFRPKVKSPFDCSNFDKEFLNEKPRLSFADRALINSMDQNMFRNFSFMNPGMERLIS
Chain of Wee1-like protein kinase (Homo sapiens) (P30291 whole entry, looked up, the tested form may be a part): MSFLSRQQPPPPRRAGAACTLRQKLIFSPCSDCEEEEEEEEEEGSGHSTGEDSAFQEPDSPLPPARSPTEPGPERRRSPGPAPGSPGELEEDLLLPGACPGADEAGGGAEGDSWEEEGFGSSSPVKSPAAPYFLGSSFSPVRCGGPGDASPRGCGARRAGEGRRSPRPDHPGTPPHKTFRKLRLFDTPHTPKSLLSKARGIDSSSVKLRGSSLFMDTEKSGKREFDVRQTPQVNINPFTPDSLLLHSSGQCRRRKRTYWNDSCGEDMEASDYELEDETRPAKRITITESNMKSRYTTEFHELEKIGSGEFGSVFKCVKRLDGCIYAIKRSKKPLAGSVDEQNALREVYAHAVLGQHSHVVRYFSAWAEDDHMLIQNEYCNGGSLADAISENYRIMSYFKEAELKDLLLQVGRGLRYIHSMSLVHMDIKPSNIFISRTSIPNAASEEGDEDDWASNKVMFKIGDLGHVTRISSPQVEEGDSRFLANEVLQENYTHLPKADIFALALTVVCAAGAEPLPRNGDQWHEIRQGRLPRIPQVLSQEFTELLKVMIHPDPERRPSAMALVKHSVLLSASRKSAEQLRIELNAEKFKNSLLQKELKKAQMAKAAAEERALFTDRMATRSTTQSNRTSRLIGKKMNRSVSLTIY
Chain of Dual specificity protein kinase CLK3 (Homo sapiens) (P49761 whole entry, looked up): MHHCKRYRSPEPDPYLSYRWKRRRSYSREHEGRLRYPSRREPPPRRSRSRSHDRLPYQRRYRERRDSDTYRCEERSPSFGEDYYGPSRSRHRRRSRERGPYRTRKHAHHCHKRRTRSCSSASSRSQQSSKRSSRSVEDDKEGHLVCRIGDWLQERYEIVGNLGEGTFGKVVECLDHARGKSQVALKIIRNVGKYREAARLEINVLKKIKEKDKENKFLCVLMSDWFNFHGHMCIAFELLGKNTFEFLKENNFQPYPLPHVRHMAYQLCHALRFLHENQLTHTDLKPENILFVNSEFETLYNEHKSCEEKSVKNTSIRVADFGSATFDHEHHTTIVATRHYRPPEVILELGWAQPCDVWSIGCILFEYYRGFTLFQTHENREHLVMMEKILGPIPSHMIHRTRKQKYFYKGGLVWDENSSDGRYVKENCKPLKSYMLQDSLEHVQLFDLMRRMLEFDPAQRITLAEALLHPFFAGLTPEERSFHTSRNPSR
Chain of Serine/threonine-protein kinase TBK1 (Homo sapiens) (Q9UHD2 whole entry): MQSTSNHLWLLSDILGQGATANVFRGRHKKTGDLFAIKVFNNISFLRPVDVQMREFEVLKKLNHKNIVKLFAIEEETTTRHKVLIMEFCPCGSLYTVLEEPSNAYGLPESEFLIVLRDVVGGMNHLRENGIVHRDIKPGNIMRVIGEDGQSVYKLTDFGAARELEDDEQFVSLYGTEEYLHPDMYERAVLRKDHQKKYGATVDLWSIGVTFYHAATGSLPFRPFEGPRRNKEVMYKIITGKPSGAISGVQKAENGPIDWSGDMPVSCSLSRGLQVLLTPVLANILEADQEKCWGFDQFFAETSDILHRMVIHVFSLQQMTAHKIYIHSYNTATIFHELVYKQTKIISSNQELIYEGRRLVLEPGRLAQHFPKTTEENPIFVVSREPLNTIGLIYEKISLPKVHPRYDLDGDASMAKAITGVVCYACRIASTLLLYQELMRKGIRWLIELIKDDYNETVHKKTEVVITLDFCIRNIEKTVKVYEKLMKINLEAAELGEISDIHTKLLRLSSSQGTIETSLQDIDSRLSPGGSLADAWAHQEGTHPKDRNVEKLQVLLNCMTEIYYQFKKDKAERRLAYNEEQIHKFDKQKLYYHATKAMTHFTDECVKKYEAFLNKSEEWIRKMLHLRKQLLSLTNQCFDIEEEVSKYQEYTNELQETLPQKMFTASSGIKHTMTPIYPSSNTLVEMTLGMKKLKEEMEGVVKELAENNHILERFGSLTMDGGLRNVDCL
Chain of Calcium/calmodulin-dependent protein kinase type II subunit beta (Homo sapiens) (Q13554 whole entry): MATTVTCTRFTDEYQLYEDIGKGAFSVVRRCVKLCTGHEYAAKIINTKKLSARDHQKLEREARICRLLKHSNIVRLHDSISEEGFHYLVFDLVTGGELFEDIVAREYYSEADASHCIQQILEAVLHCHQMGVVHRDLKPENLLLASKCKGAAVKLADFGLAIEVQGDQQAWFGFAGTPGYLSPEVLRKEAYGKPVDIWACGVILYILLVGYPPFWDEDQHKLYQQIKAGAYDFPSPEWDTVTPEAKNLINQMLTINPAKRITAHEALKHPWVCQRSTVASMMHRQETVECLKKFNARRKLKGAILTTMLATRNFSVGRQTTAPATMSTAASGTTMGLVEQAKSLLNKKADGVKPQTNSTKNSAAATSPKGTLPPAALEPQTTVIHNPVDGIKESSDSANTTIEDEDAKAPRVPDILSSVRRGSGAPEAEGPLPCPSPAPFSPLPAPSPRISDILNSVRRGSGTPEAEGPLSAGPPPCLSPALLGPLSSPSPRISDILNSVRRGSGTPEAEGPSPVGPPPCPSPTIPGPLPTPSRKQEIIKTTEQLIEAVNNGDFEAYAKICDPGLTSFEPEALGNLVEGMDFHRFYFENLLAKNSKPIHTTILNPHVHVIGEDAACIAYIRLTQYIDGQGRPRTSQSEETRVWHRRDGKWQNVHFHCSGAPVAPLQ
Chain of Mitogen-activated protein kinase 8 (Homo sapiens) (P45983 whole entry): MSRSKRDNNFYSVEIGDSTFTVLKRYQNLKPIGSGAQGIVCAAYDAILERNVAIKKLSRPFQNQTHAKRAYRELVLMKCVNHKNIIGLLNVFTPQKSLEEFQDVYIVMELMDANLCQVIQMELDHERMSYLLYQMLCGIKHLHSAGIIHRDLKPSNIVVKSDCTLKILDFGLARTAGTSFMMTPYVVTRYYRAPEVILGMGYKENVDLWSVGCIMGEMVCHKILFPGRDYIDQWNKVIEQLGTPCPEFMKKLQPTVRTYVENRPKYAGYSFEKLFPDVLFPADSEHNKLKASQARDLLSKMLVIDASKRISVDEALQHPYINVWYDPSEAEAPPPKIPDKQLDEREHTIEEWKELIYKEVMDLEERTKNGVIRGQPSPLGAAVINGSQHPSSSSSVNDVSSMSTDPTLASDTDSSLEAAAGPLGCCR

CN1C(=O)[C@@H](NC(=O)c2n[nH]c3ncc(C(F)(F)C(F)(F)F)cc23)COc2ccccc21
inhibition [1]: 0.5%
inhibition [2]: 6.5%
inhibition [3]: 3%
inhibition [4]: -0.5%
inhibition [5]: 4.5%
inhibition [6]: -1%
inhibition [7]: 5%
inhibition [8]: -5%
inhibition [9]: 0%
inhibition [10]: 8.5%
inhibition [11]: -0.5%
inhibition [12]: 13.5%
inhibition [13]: 6%
inhibition [14]: 17%
inhibition [15]: -9.5%
inhibition [16]: 2%
inhibition [17]: 3.5%
inhibition [18]: 2.5%
inhibition [19]: 1.5%
inhibition [20]: -4.5%
inhibition [21]: 1.5%
inhibition [22]: 8.5%
inhibition [23]: 4%
inhibition [24]: 5%
